System: DIO Levin rats
Assay: In vivo testing DIO Levin rats: weight changes, food consumption, insulin, leptin levels
Details: for Final BW: after 68 days, 60% fat diet
Experimental: CKD-732 as referred to herein is the hemitartrate salt of the following structure:
Test articles were administered subcutaneously on an every 4 day (q4d) schedule in a diet-induced obesity (DIO) Levin-DS rat model. […] A dietary intervention (Standard Chow, Labdiet 5001; 3.4 kcal/g) was included to compare to the drug interventions. Upon arrival at three weeks of age, the male rats received ad libitum pellets of Harlan Diet TD.06414, 60% of calories from fat, 21% of calories from carbohydrate; 5.1 kcal/g. Prior to dosing the rats were randomized into groups of three animals with an average body weight of 595 gm. […] Compound 1 in the form of the hemitartrate and CKD-732 in the form of the hemitartrate were dissolved in ethanol prior to dilution with vehicle. All doses were administered at a volume of 5.0 ml/kg. […] On day 1, first dose, the rats were 14 weeks of age. Also on day 1, Group 2 was switched from the high fat diet to a standard chow diet; the remaining groups were maintained on a high fat diet for the duration of the study.
Animals were weighed every other day. Food consumption was measured weekly. On an approximately weekly basis throughout the study, blood samples were taken for assessment of serum chemistries including glucose and insulin. On Day 48 all rats underwent a 4 hour fasted Oral Glucose Tolerance Test (OGTT). Animals were dosed orally (per os, PO) at 8 mL/kg 25% glucose (2 g/kg). On day 68, gross pathology was performed to determine body composition.

[1] = 0.6 mg/kd (so in the source) q4d sc

## poly[HPMA-co-MA-GFLG-N-(trans-4-aminocyclohexyl)carbamoylfumagillol] [Compound 16]
0.3 mg/kg q4d sc
  Avg. Insulin Day 7: 2.27 ng/mL
  Avg. Insulin Day 15: 1.65 ng/mL
  Avg. Insulin Day 23: 1.66 ng/mL
  Avg. Insulin Day 48: 1.70 ng/mL
  Avg. Insulin Pre-dosing: 1.76 ng/mL
  Group Average Food Consumption Day 1-8: 125.2 g
  Group Average Food Consumption Day 9-15: 125.9 g
  Group Average Food Consumption Day 16-23: 128.2 g
  Group Average Food Consumption Day 24-30: 129.3 g
  Group Average Food Consumption Day 31-36: 122.4 g
  Group Average Food Consumption Day 37-43: 131.9 g
  Group Average Food Consumption Day 44-50: 135.6 g
  Group Average Food Consumption Day 51-57: 134.5 g
  Group Average Food Consumption Day 58-63: 134.2 g
  Group Average Food Consumption Day 63-68: 57.6 g
  Leptin Levels Day 29: 3.30
  Leptin Levels Pre-dose: 2.53
  Leptin Levels, Day 29, % Change from Baseline: 30.3%
  Final BW: 727.3 g
[1]
  Avg. Insulin Day 7: 2.09 ng/mL
  Avg. Insulin Day 15: 1.38 ng/mL
  Avg. Insulin Day 23: 1.72 ng/mL
  Avg. Insulin Day 48: 1.91 ng/mL
  Avg. Insulin Pre-dosing: 2.95 ng/mL
  Group Average Food Consumption Day 1-8: 121.2 g
  Group Average Food Consumption Day 9-15: 101.0 g
  Group Average Food Consumption Day 16-23: 109.7 g
  Group Average Food Consumption Day 24-30: 122.1 g
  Group Average Food Consumption Day 31-36: 125.8 g
  Group Average Food Consumption Day 37-43: 116.6 g
  Group Average Food Consumption Day 44-50: 118.2 g
  Group Average Food Consumption Day 51-57: 123.1 g
  Group Average Food Consumption Day 58-63: 130.7 g
  Group Average Food Consumption Day 63-68: 45.9 g
1 mg/kg q4d sc
  Leptin Levels Day 29: 4.53
  Leptin Levels Pre-dose: 4.67
  Leptin Levels, Day 29, % Change from Baseline: −2.9%
1.0 mg/kg q4d sc
  Final BW: 668.6 g
3 mg/kg Q4D, end of the study
  lower body weight than rats on the standard chow diet: 6.2%
  lower body weight than the vehicle control: 22.1%
3 mg/kg q4d sc
  Avg. Insulin Day 7: 0.66 ng/mL
  Avg. Insulin Day 15: 0.54 ng/mL
  Avg. Insulin Day 23: 1.26 ng/mL
  Avg. Insulin Day 48: 1.08 ng/mL
  Avg. Insulin Pre-dosing: 1.49 ng/mL
  Group Average Food Consumption Day 1-8: 97.3 g
  Group Average Food Consumption Day 9-15: 63.2 g
  Group Average Food Consumption Day 16-23: 123.4 g
  Group Average Food Consumption Day 24-30: 108.7 g

Source: US11304944B2, “MetAP2 inhibitors and methods of treating obesity” (SynDevRx, Inc., priority 2013, dated 2022)
